Measured values published in patent publication US8133913B2, “Substituted indeno [1,2-b]indole derivatives as novel inhibitors of protein kinase CK2 and their use as tumor therapeutic agents, cytostatics and diagnostic aids” (Heinrich-Heine Universitat Dusseldof, priority 2006, dated 2012).
pIC50: −log10 of the molar value.

Tests used:
[1] = target: T1, human CK2 protein kinase (holoenzyme) (Homo sapiens, UniProt P68400); test: Inhibition of recombinant human CK2 protein kinase (holoenzyme), radiometric filter assay with peptide […]; assay type: biochemical; details: for inhibition at 10 µM: 10 μM compound, DMSO control = 100% CK2 activity, at least three independent experiments; for pIC50: concentration range 30 μM to 0.01 μM, 100 μM ATP in assay buffer
T1 construct: made in house; host or cells: E. coli BL21(DE3), pT7-7 or bicistronic pET11d-CK2α, β

[2] = system: 5637; test: Proliferation of tumor cell lines (Bracht et al.); assay type: cell-based; details: for activity at 20 µM: 5637, tested at 20 μM
[3] = system: SISO; test: Proliferation of tumor cell lines (Bracht et al.); assay type: cell-based; details: for activity at 20 µM: tested at 20 μM
[4] = system: KYSE-70; test: Proliferation of tumor cell lines (Bracht et al.); assay type: cell-based; details: Homo sapiens; for activity at 20 µM: KYSE-70, tested at 20 μM
[5] = system: MCF-7; test: Proliferation of tumor cell lines (Bracht et al.); assay type: cell-based; details: Homo sapiens, MCF7, read-out: IC50 (μM) Mean, inhibition of cell proliferation
[6] = system: DAN-G; test: Proliferation of tumor cell lines (Bracht et al.); assay type: cell-based; details: read-out: IC50 (μM) Mean, inhibition of cell proliferation
[7] = system: LCLC; test: Proliferation of tumor cell lines (Bracht et al.); assay type: cell-based; details: read-out: IC50 (μM) Mean, inhibition of cell proliferation
[8] = system: A427; test: Proliferation of tumor cell lines (Bracht et al.); assay type: cell-based; details: Homo sapiens, A-427, read-out: IC50 (μM) Mean, inhibition of cell proliferation
[9] = system: RT-4; test: Proliferation of tumor cell lines (Bracht et al.); assay type: cell-based; details: Homo sapiens, read-out: IC50 (μM) Mean, inhibition of cell proliferation
[10] = system: CK2; details: known CK2 inhibitors, investigated predominantly on the rat enzyme; cited from earlier work

T1 sequence (P68400 whole entry): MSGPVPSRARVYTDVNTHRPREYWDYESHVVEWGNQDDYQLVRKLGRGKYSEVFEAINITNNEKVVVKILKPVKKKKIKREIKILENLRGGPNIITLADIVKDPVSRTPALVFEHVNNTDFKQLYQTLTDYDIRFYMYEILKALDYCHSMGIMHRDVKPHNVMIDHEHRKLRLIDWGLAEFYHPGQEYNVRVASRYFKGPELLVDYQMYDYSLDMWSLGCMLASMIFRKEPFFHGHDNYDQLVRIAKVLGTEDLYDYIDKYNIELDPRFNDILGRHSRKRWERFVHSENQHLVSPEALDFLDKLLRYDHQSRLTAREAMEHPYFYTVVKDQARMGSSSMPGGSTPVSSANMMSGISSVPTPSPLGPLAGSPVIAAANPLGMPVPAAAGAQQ
T1 sequence (P67870 whole entry partner): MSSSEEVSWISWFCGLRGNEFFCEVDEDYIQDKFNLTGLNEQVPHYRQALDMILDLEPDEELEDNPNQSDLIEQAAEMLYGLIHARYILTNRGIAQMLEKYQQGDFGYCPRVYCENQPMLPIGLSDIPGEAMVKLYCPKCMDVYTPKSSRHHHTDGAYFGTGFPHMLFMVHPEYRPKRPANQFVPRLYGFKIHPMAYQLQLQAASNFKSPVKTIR

Row | Compound | melting point | activity at 20 µM ([2]; read-out: T/C (%) Mean) [%] | activity at 20 µM ([3]; read-out: T/C (%) Mean) [%] | activity at 20 µM ([4]; read-out: T/C (%) Mean) [%] | also measured
1 | O=C1CCCc2c1c1c(n2CCCO)-c2ccccc2C1=O [Example 12, 5-(3-Hydroxypropyl)-5,6,7,8-tetrahydro-indeno[1,2-b]indole-9,10-dione] | 241 °C |  |  |  | 
2 | O=c1ccc(=O)c2c1c1c(=O)c3ccccc3c1n2CCc1ccccc1 [Compound 6d, 5-Phenethyl-5H-indeno[1,2-b]indole-6,9,10-trione] |  |  |  |  | inhibition at 10 µM [1]: 70%; pIC50 [1]: 5.24; activity at 5 µM ([2]; 5637, tested at 5 μM (*), read-out: T/C (%) Mean): 69.7%; activity at 5 µM ([3]; tested at 5 μM (*), read-out: T/C (%) Mean): 87.2%; activity at 5 µM ([4]; KYSE-70, tested at 5 μM (*), read-out: T/C (%) Mean): 92%
3 | O=C(O)Cn1c2c(c3c1-c1ccccc1C3=O)C(=O)CCC2 [Example 13, (9,10-Dioxo-6,8,9,10-tetrahydro-7H-indeno[1,2-b]indol-5-yl)acetic acid] | 279 to 280 °C (dec.) |  |  |  | 
4 | CN(C)CCn1c2c(c3c1-c1ccccc1C3=O)C(=O)CCC2 [Example 11, 5-(2-Dimethylaminoethyl)-5,6,7,8-tetra-hydroindeno[1,2-b]indole-9,10-dione] | 178 °C |  |  |  | 
5 | COc1ccc(Cn2c3c(c4c2-c2ccccc2C4=O)C(=O)CCC3)cc1 [Compound 4i, 5-(4-Methoxybenzyl)-5,6,7,8-tetrahydro-indeno[1,2-b]indole-9,10-dione] | 198 to 199 °C | 78.2 | 93.6 | 79.2 | 
6 | O=C1CCCc2[nH]c3c(c21)C(=O)c1ccccc1-3 [Compound 4a, 5,6,7,8-Tetrahydroindeno[1,2-b]indole-9,10-dione] | 332 to 333 °C | 80.9 | 99.9 | 77.5 | 
7 | O=C1CCCc2c1c1c(n2CCc2ccccc2)-c2ccccc2C1=O [Compound 4d, 5-Phenethyl-5,6,7,8-tetrahydro-indeno[1,2-b]indole-9,10-dione] |  | 48 | 65.5 | 67.5 | inhibition at 10 µM [1]: 67%; pIC50 [1]: 6.09; IC50 ([2]; 5637, read-out: IC50 (μM) Mean, inhibition of cell proliferation): 10.7 µM; IC50 ([3]; read-out: IC50 (μM) Mean, inhibition of cell proliferation): 12.3 µM; IC50 ([4]; KYSE-70, read-out: IC50 (μM) Mean, inhibition of cell proliferation): > 20 µM; IC50 [5]: 6.53 µM; IC50 [6]: > 20 µM; IC50 [7]: 5.66 µM; IC50 [8]: > 20 µM; IC50 [9]: > 20 µM
8 | O=C1CCCc2c1c1c(n2Cc2ccccc2)-c2ccccc2C1=O [Compound 4c, 5-Benzyl-5,6,7,8-tetrahydroindeno[1,2-b]indole-9,10-dione] | 185 °C | 53.6 | 86.4 | 65.8 | 
9 | COC(=O)C1C(=O)c2c([nH]c3c2C(=O)c2ccccc2-3)CC1C (stereo not shown) [Compound 4l, Methyl 7-methyl-9,10-dioxo-5,6,7,8,9,10-hexahydroindeno[1,2-b]indole-8-carboxylate] | 287 °C | 79.1 | 104 | 98.8 | 
10 | O=C1CCCc2c1c1c(n2-c2ccccc2)-c2ccccc2C1=O [Compound 4g, 5-Phenyl-5,6,7,8-tetrahydroindeno[1,2-b]indole-9,10-dione] |  |  |  |  | inhibition at 10 µM [1]: 60%; pIC50 [1]: 5.84; activity at 10 µM ([2]; 5637, tested at 10 μM (**), read-out: T/C (%) Mean): 86.3%; activity at 10 µM ([3]; tested at 10 μM (**), read-out: T/C (%) Mean): 101%; activity at 10 µM ([4]; KYSE-70, tested at 10 μM (**), read-out: T/C (%) Mean): 81.8%
11 | CC1CC(=O)c2c3c(n(CCc4ccccc4)c2C1)-c1ccccc1C3=O (stereo not shown) [Compound 4p, 7-Methyl-5-phenethyl-5,6,7,8-tetrahydro-indeno[1,2-b]indole-9,10-dione] |  | 49.8 | 96.3 | 72.1 | 
12 | CC(c1ccccc1)n1c2c(c3c1-c1ccccc1C3=O)C(=O)CCC2 (racemic) [Compound 4f, DL-5-(1-phenylethyl)-5,6,7,8-tetrahydro-indeno[1,2-b]indole-9,10-dione] | 201 °C | 64.9 | 95.8 | 62.3 | inhibition at 10 µM [1]: 66%
13 | O=C1CC(c2ccccc2)Cc2c1c1c(n2Cc2ccccc2)-c2ccccc2C1=O (stereo not shown) [Compound 4n, 5-Benzyl-7-phenyl-5,6,7,8-tetrahydro-indeno[1,2-b]indole-9,10-dione] |  | 39.4 | 80.9 | 75.2 | 
14 | CC(C)n1c2c(c3c(O)cccc31)C(=O)c1ccccc1-2 [Compound 5b, 9-Hydroxy-5-isopropyl-5H-indeno[1,2-b]indol-10-one] |  | 77.5 | 104 | 77.6 | 
15 | O=C1CCCc2c1c1c(n2CCO)-c2ccccc2C1=O [Example 14, 5-(2-Hydroxyethyl)-5,6,7,8-tetrahydro-indeno[1,2-b]indole-9,10-dione] | 262 to 263 °C |  |  |  | 
16 | COc1ccc(CCn2c3c(c4c2-c2ccccc2C4=O)C(=O)CCC3)cc1OC [Compound 4j, 5-[2-(3,4-Dimethoxyphenyl)ethyl]-5,6,7,8-tetrahydroindeno[1,2-b]indole-9,10-dione] |  | 101 | 105 | 91.5 | 
17 | COc1ccc(CCn2c3c(c4c2-c2ccccc2C4=O)C(=O)CCC3)cc1OC (hydrate or solvate) [Compound 4j, 5-[2-(3,4-Dimethoxyphenyl)ethyl]-5,6,7,8-tetrahydroindeno[1,2-b]indole-9,10-dione] | 189 to 190 °C |  |  |  | 
18 | CCOCCCn1c2c(c3c1-c1ccccc1C3=O)C(=O)CCC2 [Example 16, 5-Ethoxypropyl-5,6,7,8-tetrahydro-indeno[1,2-b]indole-9,10-dione] | 129 °C |  |  |  | 
19 | Cc1cc(O)c2c(c1)C(=O)c1cc(O)cc(O)c1C2=O [emodin] |  |  |  |  | pIC50 [10]: 5.70
20 | COC(=O)C1C(=O)c2c3c(n(-c4ccccc4)c2CC1C)-c1ccccc1C3=O (stereo not shown) [Example 20, Methyl 7-methyl-9,10-dioxo-5-phenyl-5,6,7,8,9,10-hexahydroindeno[1,2-b]indole-8-carboxylate] | 249 to 250 °C |  |  |  | 
